Experimental data from paper PMC12112773, “Chemical Constituents and α-Glucosidase Inhibitory Activities of the Leaves of Embelia parviflora—In Vitro and In Silico Studies” (Life, 2025).
Like-named read-outs stand apart in the source and are kept apart here.

Legend:
[1] = biological target: α-glucosidase; conditions: cited from earlier work
[2] = biological target: T1, α-glucosidase from Saccharomyces cerevisiae (Saccharomyces cerevisiae, UniProt P53341); assay: in vitro assay of α-glucosidase enzyme inhibition (p-nitrophenyl α-D-glucopyranoside substrate); format: biochemical
T1 construct: purchased Sigma Aldrich (St. Louis, MO, USA)
Protocol: Enzyme α-glucosidase from Saccharomyces cerevisiae (E.C. 232-604-7) and p-nitrophenyl-α-D-glucopyranoside were purchased from Sigma Aldrich (St. Louis, MO, USA).
The in vitro assay of α-glucosidase enzyme inhibition of the E. parviflora MeOH extract and tested compounds was conducted following the methodology outlined in our earlier study [38]. Briefly, solutions of MeOH extract and isolated compounds at 256 μg/mL, 64 μg/mL, 16 μg/mL, 4 μg/mL, and 1 μg/mL concentrations were prepared using DMSO (Merck). The compound solution (2 μL) and 0.2 U/mL α-glucosidase enzyme solution (25 µL) in 120 µL phosphate buffer were mixed. After 5 min preincubation, a solution of 2.5 mM p-nitrophenyl α-D-glucopyranoside (25 µL) prepared in phosphate buffer was added. The reaction mixture was incubated at 37 °C for 30 min and was stopped by adding 0.2 M of Na2CO3 (100 µL). Enzymatic activity (the absorbance of the released p-nitrophenol) was quantified by measuring at 410 nm using a Biotek reader. The % inhibition was calculated using the following equation:Inhibition (%) = [1 − (Asample/Acontrol)] × 100
The biological experiments were performed in triplicate. The IC50 values are presented as the mean ± standard deviation (S.D) using the program Statistica 10.

[3] = mean ± S.D, triplicate, 37 °C, 30 min, read-out: α-Glucosidase inhibitory activity IC50

T1 sequence (P53341 whole entry): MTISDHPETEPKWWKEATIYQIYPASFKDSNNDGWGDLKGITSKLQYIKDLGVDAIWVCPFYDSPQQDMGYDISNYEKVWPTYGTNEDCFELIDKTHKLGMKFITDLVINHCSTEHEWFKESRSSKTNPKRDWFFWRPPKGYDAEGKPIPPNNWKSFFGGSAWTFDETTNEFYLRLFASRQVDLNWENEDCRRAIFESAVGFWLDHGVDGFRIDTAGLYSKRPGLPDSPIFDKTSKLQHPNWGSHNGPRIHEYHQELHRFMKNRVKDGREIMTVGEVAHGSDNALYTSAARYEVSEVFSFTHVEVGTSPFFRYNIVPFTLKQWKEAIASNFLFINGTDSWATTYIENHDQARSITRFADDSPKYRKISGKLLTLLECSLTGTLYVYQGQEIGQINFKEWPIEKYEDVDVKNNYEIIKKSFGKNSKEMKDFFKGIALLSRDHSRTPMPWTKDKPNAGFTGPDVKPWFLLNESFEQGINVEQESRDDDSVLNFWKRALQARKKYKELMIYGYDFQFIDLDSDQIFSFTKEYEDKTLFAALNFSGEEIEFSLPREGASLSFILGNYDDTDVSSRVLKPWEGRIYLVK

Row | SMILES | IC50 [2, 3] | further results
1 | CC[C@H](CC[C@@H](C)[C@H]1CC[C@H]2[C@@H]3CC=C4C[C@@H](O)CC[C@]4(C)[C@H]3CC[C@]12C)C(C)C [Compound 1, β-sistosterol] | > 617 µM | anti-α-glucosidase activity IC50 [1]: 283.67 µg/mL
2 | CCCCCCCCCCCCCCCC(=O)OC[C@H]1O[C@@H](O[C@H]2CC[C@@]3(C)C(=CCC4C3CC[C@@]3(C)C4CC[C@@H]3[C@H](C)/C=C/[C@@H](CC)C(C)C)C2)[C@H](O)[C@@H](O)[C@@H]1O (stereo partly drawn) [Compound 3, 3-O-(6′-O-palmitoyl)-β-D-glucopyranosyl stigmasterol] | > 315 µM | 
3 | C[C@H]1[C@H](C)CC[C@]2(C(=O)O)CC[C@]3(C)C(=CC[C@@H]4[C@@]5(C)CC[C@H](O)C(C)(C)[C@@H]5CC[C@]43C)[C@H]12 [Compound 4, ursolic acid] |  | manner of inhibition [1]: non-competitive; IC50 [2]: 3.07 µM
4 | C[C@@H]1O[C@@H](Oc2c(-c3ccc(O)c(O)c3)oc3cc(O)cc(O)c3c2=O)[C@H](O)[C@H](O)[C@H]1O [Compound 7, quercitrin] |  | IC50 ([1]; Dang's group, read-out: α-glucosidase inhibitory activity IC50): 26.5 µM; IC50 [2]: 375 µM
5 | CC1=CC(=O)CC(C)(C)[C@@]1(O)/C=C/[C@@H](C)O [Compound 12, vomifoliol] |  | α-glucosidase inhibitory activity (in words) [1]: inactive; IC50 [2]: > 1140 µM

More lines, main results first:

Row | IC50 [2, 3] | SMILES | further results
6 | > 444 µM | CC[C@H](CC[C@@H](C)[C@H]1CC[C@H]2[C@@H]3CC=C4C[C@@H](O[C@@H]5O[C@H](CO)[C@@H](O)[C@H](O)[C@H]5O)CC[C@]4(C)[C@H]3CC[C@]12C)C(C)C [Compound 2, daucosterol] | anti-α-glucosidase activity IC50 [1]: 247.35 µg/mL
7 | > 419 µM | CC1OC(Oc2c(-c3ccc(O)c(OC4OC(CO)C(O)C(O)C4O)c3)oc3cc(O)cc(O)c3c2=O)C(O)C(O)C1O (stereo not drawn) [Compound 8, quercetin-3-rhamnoside-3′-glucoside] | 
8 | > 1230 µM | CC1=CC(=O)CC(C)(C)[C@H]1/C=C/[C@@H](C)O [Compound 9, (6R,9R)-9-hydroxy-4,7-megastigmadien-3-one] | 
9 | > 1140 µM | CC(=O)C=C=C1C(C)(C)C[C@H](O)C[C@]1(C)O [Compound 10, grasshopper ketone] | 
10 | > 509 µM | CC1=CC(=O)CC(C)(C)[C@H]1/C=C/[C@@H](C)O[C@@H]1O[C@H](CO[C@@H]2OC[C@](O)(CO)[C@H]2O)[C@@H](O)[C@H](O)[C@H]1O [Compound 11, (6R,7E,9R)-9-hydroxy-4,7-megastigmadien-3-one-9-O-β-D-apiofuranosyl(1->6)-β-D-glucopyranoside] | 
11 | > 1440 µM | COC(=O)/C=C/c1ccc(O)cc1 [Compound 13, methyl trans-p-coumarate] | IC50 ([1]; read-out: inhibition of α-glucosidase IC50): 54.1 µM
12 | > 2000 µM | CC1=C(O)C(=O)OC1C (stereo not drawn) [Compound 16, sotolone] | 
